Measurements as given in US11780821B2, “Inhibitors of fibroblast activation protein” (Praxis Biotech LLC, priority 2017, dated 2023).

Key:
[1] = biological target: T1, recombinant human FAPα (rhFAPα) (Homo sapiens, UniProt Q12884); experiment: FAPα enzymatic exopeptidase (dipeptidase) activity assay; format: biochemical; conditions: 1 μM test compound; Z-Gly-Pro-AMC substrate
T1 construct: purchased R&S system (so in the source)
T1 sequence (Q12884 1-760): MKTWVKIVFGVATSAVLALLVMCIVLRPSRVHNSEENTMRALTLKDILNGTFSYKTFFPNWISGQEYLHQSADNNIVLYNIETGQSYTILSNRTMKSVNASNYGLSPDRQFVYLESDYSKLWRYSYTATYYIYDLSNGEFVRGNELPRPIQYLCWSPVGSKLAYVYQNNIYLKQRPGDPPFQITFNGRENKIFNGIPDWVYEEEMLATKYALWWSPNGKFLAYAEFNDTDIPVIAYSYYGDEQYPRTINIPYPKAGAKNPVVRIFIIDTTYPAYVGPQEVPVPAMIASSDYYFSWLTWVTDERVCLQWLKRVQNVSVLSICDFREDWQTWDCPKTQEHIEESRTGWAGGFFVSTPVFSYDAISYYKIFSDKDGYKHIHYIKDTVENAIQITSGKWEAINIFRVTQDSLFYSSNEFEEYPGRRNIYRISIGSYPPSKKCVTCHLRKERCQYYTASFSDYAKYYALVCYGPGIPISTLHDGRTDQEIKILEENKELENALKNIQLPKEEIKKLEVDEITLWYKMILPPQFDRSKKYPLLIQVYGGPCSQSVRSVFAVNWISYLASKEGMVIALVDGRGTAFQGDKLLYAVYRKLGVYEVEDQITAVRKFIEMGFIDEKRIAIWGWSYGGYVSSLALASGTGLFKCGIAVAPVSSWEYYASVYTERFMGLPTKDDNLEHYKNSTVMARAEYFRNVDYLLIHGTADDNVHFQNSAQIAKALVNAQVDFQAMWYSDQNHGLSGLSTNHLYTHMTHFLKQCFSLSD

[2] = biological target: T2, recombinant mouse FAPα (rmFAPα) (Mus musculus, UniProt P97321); experiment: as above; format: biochemical; conditions: 1 μM test compound; Z-Gly-Pro-AMC substrate
T2 construct: purchased R&S system (so in the source)
T2 sequence (P97321 1-761): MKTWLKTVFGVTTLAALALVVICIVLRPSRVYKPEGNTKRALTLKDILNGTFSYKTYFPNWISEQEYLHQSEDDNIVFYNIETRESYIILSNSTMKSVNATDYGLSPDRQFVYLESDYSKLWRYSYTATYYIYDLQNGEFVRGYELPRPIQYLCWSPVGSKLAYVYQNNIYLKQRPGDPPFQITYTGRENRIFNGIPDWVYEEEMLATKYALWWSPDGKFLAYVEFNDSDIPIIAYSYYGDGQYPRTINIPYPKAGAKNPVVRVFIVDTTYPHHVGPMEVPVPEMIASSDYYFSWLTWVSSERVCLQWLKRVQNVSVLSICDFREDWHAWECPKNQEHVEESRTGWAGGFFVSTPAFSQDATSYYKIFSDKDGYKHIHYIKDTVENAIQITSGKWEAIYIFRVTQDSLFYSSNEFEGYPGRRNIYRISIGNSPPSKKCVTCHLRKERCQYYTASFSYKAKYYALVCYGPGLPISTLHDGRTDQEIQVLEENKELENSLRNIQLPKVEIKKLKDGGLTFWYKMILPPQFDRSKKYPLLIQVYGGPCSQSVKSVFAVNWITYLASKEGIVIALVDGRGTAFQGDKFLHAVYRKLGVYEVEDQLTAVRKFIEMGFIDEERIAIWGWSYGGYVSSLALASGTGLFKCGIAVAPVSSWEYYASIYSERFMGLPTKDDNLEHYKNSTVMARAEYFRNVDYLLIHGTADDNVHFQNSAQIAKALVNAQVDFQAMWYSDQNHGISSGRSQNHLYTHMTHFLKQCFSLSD
Procedure: FAPα enzymatic exopeptidase (dipeptidase) activity assay. […] 7-Amino-4-Methylcoumarin (AMC) release was detected by measuring fluorescence at Ex/Em 380/460 nm using a Multifunction Microplate Reader (Synergy 4, Biotek). All measurements were carried out in duplicate. […] For the calculations, the average measurements from reactions containing only vehicle and substrate, without enzyme, were used as a blank and were subtracted from the rest of the measurements. Percent inhibition was calculated using the average measurements from reactions containing vehicle, enzyme, and substrate as the maximum of enzymatic activity. Measurements were performed as a single point.

[3] = Intravenous and oral bioavailability in mice; format: in vivo
Procedure: The pharmacokinetic properties of exemplary test compounds were assayed after administration of an intravenous (IV) 2 mg/kg or oral (PO) 10 mg/kg single dose in mice. Exemplary test compounds were formulated at 0.4 and 1 mg/ml in a vehicle containing Poly-Ethylene Glycol 200 (PEG200; Cat. No. #P3015, Sigma Aldrich) and distilled water (dH2O) (50/50, v/v) as dosing solutions for intravenous and oral administration, respectively.
C57BL/6j and Balb/c mice, approximately 8-10 weeks old, were obtained from the vivarium Fundación Ciencia & Vida Chile (Santiago, Chile) and maintained in a temperature-controlled room with 12/12 hr light/dark schedule with food and water ad libitum. Animals were acclimated for a minimum period of 4 days upon arrival at the testing facility.
On the day of study, mice were weighed and identified by marking the tail with numbers using a non-toxic permanent marker for designation into the experimental groups (n=3 per group). Each mouse in the IV dosing groups received a systemic bolus of 2 mg/kg dosing solution via the caudal vein.
Non-dosed mice were used to collect samples of zero time points. […] Blood samples were centrifuged immediately at 9,000 g at 4° C. for 5 min and the plasma was separated.
The plasma samples were analyzed by QTRAP 4500 triple quadrupole mass spectrometer (Applied Biosystems SCIEX) in positive or negative ion mode depending on the tested compound and interfaced with an ekspert ultraLC 100-XL UPLC System (eksigent) to determine the concentration of the exemplary test compound. […] The precipitated samples were centrifuged at 6,100 g for 30 min at 4° C. Following centrifugation, an aliquot of each supernatant was transferred into a clean sample vial and diluted with two volumes of aqueous mobile phase (0.2% formic acid in water). Samples were injected onto a reverse phase analytical column (YMC Triart C18; 2.0×50 mm; 1.9 μm; YMC CO) and eluted with a gradient of 0.1 or 0.2% formic acid in Acetonitrile. Test compound and internal standard were monitored by a multiple reaction monitoring (MRM) experiment using Analyst software (v1.6.2, Applied Biosystems SCIEX). Quantitation was conducted using MultiQuant software (v2.1, Applied Biosystems SCIEX) and the resulting calibration curve was fitted with a linear or quadratic regression and 1/x weighting.
IV and PO PK parameters were calculated from the concentration-time data using Phoenix WinNonlin software (v6.4, Certara, Princeton, N.J.) by noncompartmental analysis. Area under the concentration-time curve (AUClast) was estimated using a log-linear trapezoidal method, from the dosing time to the last measurable concentration.

[4] = biological target: T3, recombinant mouse PREP (rmPREP) (Mus musculus, UniProt Q9QUR6); experiment: PREP enzymatic activity assay; format: biochemical; conditions: Z-Gly-Pro-AMC substrate
T3 construct: purchased R&S system (so in the source)
Procedure: 7-Amino-4-Methylcoumarin (AMC) release was detected by measuring fluorescence at Ex/Em 380/460 nm using a Multifunction Microplate Reader (Synergy 4, Biotek). All measurements were carried out in triplicate.

[5] = biological target: T4, recombinant mouse DPPIV (rmDPPIV) (Mus musculus, UniProt P28843); experiment: DPPIV enzymatic activity assay; format: biochemical; conditions: H-Gly-Pro-pNA substrate
T4 construct: purchased R&S system (so in the source)

mouse plasma DPPIV = biological target: T5, mouse plasma DPPIV (Mus musculus, UniProt P28843); experiment: DPPIV enzymatic activity in mouse plasma; format: biochemical; conditions: C57BL/6 mouse plasma; H-Gly-Pro-AMC substrate
T5 construct: from tissue; host or cells: mouse plasma (C57BL/6, EDTA)
Procedure: Approximately 500 μL of whole blood from one C57BL/6 mouse was harvested into BD Microtainer® tubes (K2) EDTA (#365974, Becton Dickinson and Co.) via terminal cardiac puncture. The blood sample was immediately centrifuged at approximately 9000 g at 4° C. for 5 minutes. Plasma was separated and stored at −80° C. in aliquots of 300 μL. To assay baseline DPPIV enzymatic exopeptidase activity, 5 μL of thawed, mouse plasma was diluted (1:5) in buffer (100 mM Tris-HCl, 400 mM NaCl, 50 mM salicylic acid, 1 mM EDTA, pH 7.5) and mixed with 35 µL of the same buffer before being pre-incubated with different concentrations of 10 μL of test compounds or DMSO vehicle for 15 minutes at 37° C. in 96-well black plates (Nunc, #237108). After pre-incubation, 50 μL of 200 μM dipeptide substrate H-Gly-Pro-AMC (Bachem, #L-1225) was added to the mixture. The assay was performed for 1 hour at 37° C. 7-Amino-4-Methylcoumarin (AMC) release was detected measuring fluorescence at an excitation wavelength of 360 nm and an emission wavelength of 460 nm using a Multifunction Microplate Reader (Synergy 4, Biotek). All measurements were carried out at least in duplicate.

[6] = standing in pH 7.8; cyclization; cited from earlier work
a variety of cancers = conditions: Phase II, combination with standard cytotoxic chemotherapy; cited from earlier work

T3 sequence (Q9QUR6 whole entry): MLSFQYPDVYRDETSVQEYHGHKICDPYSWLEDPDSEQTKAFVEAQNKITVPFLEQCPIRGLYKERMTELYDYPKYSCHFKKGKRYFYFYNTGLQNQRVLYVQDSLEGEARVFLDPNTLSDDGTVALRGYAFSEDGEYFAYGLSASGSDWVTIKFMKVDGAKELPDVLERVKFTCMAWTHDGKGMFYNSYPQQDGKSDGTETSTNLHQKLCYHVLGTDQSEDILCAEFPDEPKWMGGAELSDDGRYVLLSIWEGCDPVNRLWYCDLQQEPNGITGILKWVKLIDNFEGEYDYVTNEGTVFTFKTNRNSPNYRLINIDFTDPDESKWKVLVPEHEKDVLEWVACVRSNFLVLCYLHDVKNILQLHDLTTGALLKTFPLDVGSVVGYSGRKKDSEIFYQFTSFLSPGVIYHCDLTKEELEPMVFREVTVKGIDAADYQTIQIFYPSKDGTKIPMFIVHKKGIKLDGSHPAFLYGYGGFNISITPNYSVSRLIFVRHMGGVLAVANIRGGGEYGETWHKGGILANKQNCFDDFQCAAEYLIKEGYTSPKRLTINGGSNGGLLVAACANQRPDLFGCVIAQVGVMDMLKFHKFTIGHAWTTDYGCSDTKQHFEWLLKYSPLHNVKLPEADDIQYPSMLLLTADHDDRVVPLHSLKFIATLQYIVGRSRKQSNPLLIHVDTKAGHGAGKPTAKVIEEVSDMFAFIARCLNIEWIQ
T5 sequence (P28843 37-760 limits assumed): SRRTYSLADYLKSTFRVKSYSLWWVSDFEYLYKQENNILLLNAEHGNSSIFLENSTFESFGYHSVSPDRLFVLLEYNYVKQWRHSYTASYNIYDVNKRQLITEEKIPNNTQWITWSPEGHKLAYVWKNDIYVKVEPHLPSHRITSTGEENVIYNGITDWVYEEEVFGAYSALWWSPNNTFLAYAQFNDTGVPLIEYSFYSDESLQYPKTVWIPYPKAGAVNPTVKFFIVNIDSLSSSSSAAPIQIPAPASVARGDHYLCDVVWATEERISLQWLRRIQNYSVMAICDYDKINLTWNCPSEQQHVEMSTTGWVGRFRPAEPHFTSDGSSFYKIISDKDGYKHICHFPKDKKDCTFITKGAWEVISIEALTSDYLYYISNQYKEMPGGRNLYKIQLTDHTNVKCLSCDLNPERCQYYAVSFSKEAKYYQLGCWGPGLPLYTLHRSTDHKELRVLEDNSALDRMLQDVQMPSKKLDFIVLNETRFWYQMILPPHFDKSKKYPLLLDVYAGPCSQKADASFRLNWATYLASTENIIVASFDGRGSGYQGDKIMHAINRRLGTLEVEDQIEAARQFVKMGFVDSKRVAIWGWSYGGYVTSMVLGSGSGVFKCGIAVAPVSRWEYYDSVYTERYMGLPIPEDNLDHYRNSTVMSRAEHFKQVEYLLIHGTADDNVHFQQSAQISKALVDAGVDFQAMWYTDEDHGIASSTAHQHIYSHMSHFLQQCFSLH
T4 sequence (P28843 whole entry): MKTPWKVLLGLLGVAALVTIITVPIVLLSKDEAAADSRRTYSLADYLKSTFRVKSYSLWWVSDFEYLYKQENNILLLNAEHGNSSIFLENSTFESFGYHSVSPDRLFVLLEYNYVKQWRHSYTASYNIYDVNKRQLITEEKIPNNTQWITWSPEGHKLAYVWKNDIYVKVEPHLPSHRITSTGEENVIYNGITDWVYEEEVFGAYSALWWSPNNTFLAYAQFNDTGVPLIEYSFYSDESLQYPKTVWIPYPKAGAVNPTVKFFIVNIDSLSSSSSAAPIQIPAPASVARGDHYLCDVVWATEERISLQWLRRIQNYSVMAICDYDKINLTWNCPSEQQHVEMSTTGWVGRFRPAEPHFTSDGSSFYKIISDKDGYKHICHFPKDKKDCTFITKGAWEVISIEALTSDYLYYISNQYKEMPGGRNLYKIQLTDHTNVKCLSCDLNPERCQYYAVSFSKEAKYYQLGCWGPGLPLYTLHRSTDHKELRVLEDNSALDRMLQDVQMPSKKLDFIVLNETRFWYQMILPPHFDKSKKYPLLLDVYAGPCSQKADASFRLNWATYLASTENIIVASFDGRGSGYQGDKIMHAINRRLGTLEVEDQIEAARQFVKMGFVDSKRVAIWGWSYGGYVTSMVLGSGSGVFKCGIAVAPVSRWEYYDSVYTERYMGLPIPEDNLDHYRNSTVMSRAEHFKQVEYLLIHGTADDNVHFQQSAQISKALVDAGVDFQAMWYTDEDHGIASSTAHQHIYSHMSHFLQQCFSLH

| SMILES | rhFAPα (% exo inh @ 1 μM) [1] | rmFAPα (% exo inh @ 1 μM) [2] | F (bioavailability) ([3]; PO 10 mg/kg vs IV 2 mg/kg) | AUClast ([3]; oral (PO) 10 mg/kg single dose, plasma) | IC50 [4] | IC50 [5] | IC50 (mouse plasma DPPIV) | stability of protease inhibitory activity [6] | clinical efficacy endpoints (a variety of cancers) |
| --- | --- | --- | --- | --- | --- | --- | --- | --- | --- |
| N#CC1CC(F)(F)CN1C(=O)CNC(=O)c1ccnc2ccccc12 (stereo not drawn) [Ref. Comp., reference compound] | +++ (+++ refers to > 50% inhibition at 1 μM test compound) | +++ (+++ refers to > 50% inhibition at 1 μM test compound) | 39.7% | 1.12 µg·h/mL | > 10 µM | > 10 µM | > 10 µM |  |  |
| CC(C)[C@H](N)C(=O)N1CCC[C@H]1B(O)O [Val-boroPro] |  |  |  |  |  |  |  | rapidly loses protease inhibitory activity | endpoints for efficacy were not met |
